How the values were obtained:
M1 muscarinic receptor = biological target: T1, M1 muscarinic receptor (Homo sapiens, UniProt P11229); assay: Functional mobilization of intracellular calcium (FLIPR), M1-CHO cells; type: cell-based; conditions: for Emax: 100% efficacy is the maximum response obtained using Carbachol as a control; for M1 Activity: M1-CHO cells, FLIPR calcium mobilization
T1 construct: expressed in transfected cells; host or cells: CHO (M1-CHO)
T1 sequence (P11229 1-460): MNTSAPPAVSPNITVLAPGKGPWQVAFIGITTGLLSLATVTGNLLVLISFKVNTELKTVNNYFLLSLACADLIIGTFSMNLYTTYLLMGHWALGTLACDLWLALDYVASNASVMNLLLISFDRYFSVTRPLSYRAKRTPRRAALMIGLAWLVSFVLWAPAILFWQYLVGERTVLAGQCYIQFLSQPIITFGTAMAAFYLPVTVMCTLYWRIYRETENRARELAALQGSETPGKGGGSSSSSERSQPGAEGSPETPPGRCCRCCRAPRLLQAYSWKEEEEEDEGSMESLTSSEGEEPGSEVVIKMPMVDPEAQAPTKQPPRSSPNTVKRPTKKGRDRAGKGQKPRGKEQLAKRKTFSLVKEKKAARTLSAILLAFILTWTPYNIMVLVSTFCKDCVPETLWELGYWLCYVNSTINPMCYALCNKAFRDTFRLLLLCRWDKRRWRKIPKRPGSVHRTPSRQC
How it was run: (§1)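 Calcium flux recorded 60 s (ex 488, em 540 nm) in dye-loaded M1- or M4-CHO cells in pH 7.4 buffer with 1 mM probenecid. Inhibition measured against carbachol EC80 after 15 min compound pre-incubation or co-addition; agonism measured by compound addition alone. Final DMSO 0.5%.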

M4 muscarinic receptor = biological target: T2, M4 muscarinic receptor (Homo sapiens, UniProt P08173); assay: Functional mobilization of intracellular calcium (FLIPR), M4-CHO cells; type: cell-based; conditions: for Emax: 100% efficacy is the maximum response obtained using Carbachol as a control; for M4 Activity: M4-CHO cells, FLIPR calcium mobilization
T2 construct: expressed in transfected cells; host or cells: CHO (M4-CHO)
T2 sequence (P08173 1-479): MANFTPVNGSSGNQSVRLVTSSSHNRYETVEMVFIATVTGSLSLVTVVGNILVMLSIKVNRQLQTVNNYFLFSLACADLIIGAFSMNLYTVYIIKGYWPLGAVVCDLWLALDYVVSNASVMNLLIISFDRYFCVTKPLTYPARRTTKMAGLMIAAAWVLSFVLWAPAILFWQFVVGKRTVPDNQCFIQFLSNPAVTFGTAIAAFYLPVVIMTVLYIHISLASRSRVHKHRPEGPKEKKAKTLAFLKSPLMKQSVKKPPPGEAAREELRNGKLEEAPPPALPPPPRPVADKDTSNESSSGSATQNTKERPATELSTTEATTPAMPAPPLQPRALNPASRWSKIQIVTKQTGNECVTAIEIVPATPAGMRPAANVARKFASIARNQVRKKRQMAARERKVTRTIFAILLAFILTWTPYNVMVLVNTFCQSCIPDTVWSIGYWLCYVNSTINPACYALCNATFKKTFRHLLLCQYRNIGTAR
How it was run: as §1

Row | SMILES | Emax (M1 muscarinic receptor) [%] | M1 Activity (M1 muscarinic receptor) | Emax (M4 muscarinic receptor) [%] | M4 Activity (M4 muscarinic receptor)
1 | CCOC(=O)N1C2CCC1CC(N1CCC3(CC1)CN(S(=O)(=O)c1ccc(OC(F)(F)F)cc1)Cc1ccccc13)C2 (stereo not shown) [compound 67] | 25 to 100 | ++ (activity was measured to be from 1.0 μM to 5.0 μM) | 25 to 100 | +++ (activity was measured to be less than 1.0 μM)
2 | COC(=O)N1CC(CN2CCC3(CC2)CN(C(C)=O)Cc2ccccc23)C1 [compound 50] | < 25 | + (activity was measured to be greater than 5.0 μM) | < 25 | + (activity was measured to be greater than 5.0 μM)
3 | CC(=O)N1Cc2ccccc2C2(CCN(C3CCN(C(=O)OC(C)C)CC3)CC2)C1 [compound 88] | 25 to 100 | +++ (activity was measured to be less than 1.0 μM) | 25 to 100 | +++ (activity was measured to be less than 1.0 μM)
4 | CCOC(=O)N1C2CCC1CC(N1CCC3(CC1)CN(C(=O)c1cnn(-c4ccccc4)c1C(F)(F)F)Cc1ccccc13)C2 (stereo not shown) [compound 92] | 25 to 100 | ++ (activity was measured to be from 1.0 μM to 5.0 μM) | 25 to 100 | ++ (activity was measured to be from 1.0 μM to 5.0 μM)
5 | CCOC(=O)N1CCC(CN2CCC3(CC2)CN(C(=O)c2snnc2C)Cc2ccccc23)CC1 [compound 143] | 25 to 100 | +++ (activity was measured to be less than 1.0 μM) | 25 to 100 | +++ (activity was measured to be less than 1.0 μM)
6 | COc1ccc(CN2CCC3(CC2)CN(C(C)=O)Cc2ccccc23)cn1 [compound 37] | 25 to 100 | + (activity was measured to be greater than 5.0 μM) | < 25 | + (activity was measured to be greater than 5.0 μM)
7 | CC(=O)N1Cc2ccccc2C2(CCN(CC3CCOCC3)CC2)C1 [compound 182] | < 25 | + (activity was measured to be greater than 5.0 μM) | < 25 | + (activity was measured to be greater than 5.0 μM)
8 | CCOC(=O)N1CCC(CN2CCC3(CC2)CN(C(=O)N(C)C)Cc2ccccc23)CC1 [compound 288] | 25 to 100 | +++ (activity was measured to be less than 1.0 μM) | 25 to 100 | +++ (activity was measured to be less than 1.0 μM)
9 | CCOC(=O)N1CCC(CN2CCC3(CC2)CN(C(=O)c2nc(C)oc2C)Cc2ccccc23)CC1 [compound 275] | 25 to 100 | +++ (activity was measured to be less than 1.0 μM) | 25 to 100 | +++ (activity was measured to be less than 1.0 μM)
10 | CC(=O)N1Cc2ccccc2C2(CCN(C3CCN(C(=O)O[C@H]4CCOC4)CC3)CC2)C1 [compound 302] | 25 to 100 | +++ (activity was measured to be less than 1.0 μM) | 25 to 100 | +++ (activity was measured to be less than 1.0 μM)
11 | CCOC(=O)N1CC[C@@H](CN2CCC3(CC2)CN(C(C)=O)Cc2ccccc23)C1 [compound 216] | 25 to 100 | +++ (activity was measured to be less than 1.0 μM) | 25 to 100 | +++ (activity was measured to be less than 1.0 μM)
12 | CCOC(=O)N1C2CCC1CC(N1CCC3(CC1)CN(S(=O)(=O)c1ccc(C#N)cc1)Cc1ccccc13)C2 (stereo not shown) [compound 355] | 25 to 100 | +++ (activity was measured to be less than 1.0 μM) | 25 to 100 | +++ (activity was measured to be less than 1.0 μM)
13 | CCOC(=O)N1CCC(CN2CCC3(CC2)OC(=O)c2ccc(C)cc23)CC1 [compound 145] | 25 to 100 | +++ (activity was measured to be less than 1.0 μM) | 25 to 100 | +++ (activity was measured to be less than 1.0 μM)

Reference: patent publication US7863449B2, “Modulators of muscarinic receptors” (Vertex Pharmaceuticals Incorporated, priority 2004, dated 2011)
